Consider 5 compounds from US11834696B2, “Antimicrobial susceptibility testing with large-volume light scattering imaging and deep learning video microscopy” (Arizona Board of Regents on behalf of Arizona State …, priority 2017, dated 2023).

≈ marks a conversion by molar mass, not a printed value.

The subject of experiment [1] is E. coli. Briefly: AST without DL (division feature only, cell counting from the videos). In kind it is cell-based, Escherichia coli (ATCC 43888). Particulars: for MIC: Escherichia coli. On the procedure: To further validate the DLVM-AST method, we counted the total number of bacteria cells (Ntotal) from the videos (as shown in FIG. 9), and plotted Ntotal (mean±std) vs. time for PMB at various concentrations (as shown in FIG. 11C).
Growth and preparation of E. coli. Frozen E. coli strains were thawed, and 50 μL of which were cultured in 5 mL of Luria-Bertani (LB) medium (Per liter: 10 g peptone 140, 5 g yeast extract, and 5 g sodium chloride) at 37° C. and 150 rpm for 16 hours. Saturated cultures in the volume of 20 μL were diluted into 5 mL of fresh LB medium, and growth continued at 37° C. with 150 rpm for 1 hour to attain a logarithmic phase of growth. Bacterial cells were collected by centrifugation at 450 g for 5 min and suspended in urine to a concentration of 2×10^7 cells/mL^36. This concentration was determined by measuring the extinction coefficients for E. coli from the Optical Density (OD600) reading taken with a spectrophototometer (NanoDrop™ 2000/2000c Spectrophotometers, Thermo Scientific). The calibration factor for bacterial cell cultures estimation was 8×10^8 cells/mL per OD600 unit. Before use, the bacteria-spiked urine samples were filtered using a 5 μm syringe filter (EMD Millipore) to remove large particles.
AST with video microscopy. The microfluidic chip was placed on an inverted microscope (Olympus IX-81) with a 40× phase contrast objective lens and imaged with a CCD camera (Pike-032B, Allied Vision Technologies, Newburyport, Mass.). A 200-μL bacterial suspension (2×10^7 cells/mL) was mixed with an equal volume of antibiotic solution for each antibiotic concentration or an equal volume of water as a control experiment. These mixed solutions were injected into different microfluidic channels simultaneously. After the microfluidic channels were fulfilled with these mixed solutions, two microfluidic valves of each detection channel were closed simultaneously to generate a stable microenvironment. Videos of the bacterial cells were recorded at 100 frames per second (fps) immediately (0 min) and after every 30 min. Each video lasted for 30 seconds. The raw images were batch-converted to 16-bit tiff format using a Matlab program and pre-processed to minimize background artifacts before being processed with the DL model. To include enough cells for reliable results, we integrated bacterial cells from three videos recorded from different experiments. Each experiment was repeated independently for three times.

The subject of experiment [2] is E. coli. Briefly: microbe, parasite or virus in culture. In kind it is cell-based, Escherichia coli (ATCC 43888). Particulars: broth macrodilution, 37° C., triplicate; for MIC: Escherichia coli. On the procedure: AST with broth macrodilution (BMD) method. For comparison, AST was also performed by the BMD method (CLSI gold standard^35). The adjusted inoculum E. coli suspension is diluted in Cation-adjusted Mueller Hinton Broth (CAMHB, Sigma-Aldrich) and the concentration of E. coli cell cultures are adjusted to 1×10^6 cells/mL based on UV-Vis spectrophotometer (NanoDrop 2000, Thermo Fisher) readings at OD600. […] After inoculation, each tube contains approximately 5×10^5 cells/mL. […] This test was performed in triplicate.

Experiment [3] deals with E. coli. Briefly: Deep learning video microscopy-based antimicrobial susceptibility testing (DLVM-AST). Type of experiment: cell-based, Escherichia coli (ATCC 43888). Particulars: for MIC: Escherichia coli.
Experiment [4] deals with E. coli. As to the kind of experiment: Phenotypic features (motion, morphology) in recorded bacteria videos in presence of antibiotics. Particulars: 3 hours. Type of experiment: cell-based, Escherichia coli. The protocol: Referring now simultaneously to FIG. 8A-FIG. 8C, phenotypic features in the recorded bacteria videos in the presence and absence of antibiotics are shown. […] Concentrations of PMB and aztreonam are 8 μg/mL and 0.5 μg/mL, respectively.
In principle, the raw bacterial videos could be used as inputs for a DL model, but the computational expense is impractical. In fact, few DL applications could use videos as input data directly even with high performance super-computers.^30-32 To overcome this difficulty, a method to compress the raw videos into static images without losing key phenotypic features was developed as described further below. This approach imitates human vision, which pre-processes raw images in the vision system to reduce complexity before passing them to the brain. The key phenotypic features in the video include cell division, motion, and morphology. […] Cell motion and morphology may also change when exposing the cell to antibiotics, thus serving as additional phenotypic features for AST. […]
AST with video microscopy. […] Videos of the bacterial cells were recorded at 100 frames per second (fps) immediately (0 min) and after every 30 min. […] To include enough cells for reliable results, we integrated bacterial cells from three videos recorded from different experiments. […]

For experiment [5], the system named is E. coli O157 model strain. As to the kind of experiment: Susceptibility test with 40× optical microscope and imaging-processing algorithm tracking motion and growth. Type of experiment: cell-based. Particulars: @30 mins; concentrated bacterial samples. From the text: The inventors here have tested the susceptibility of E. coli O157 model strain to polymysin B (PMB, an antibiotic) using a 40× optical microscope. The individual bacterial cells 12 were identified, and their motions and growth were tracked using an imaging-processing algorithm. Inhibition curves were derived from the tracking data as shown below with respect to FIG. 4B and FIG. 4C. […] However, the experiment used concentrated bacterial samples, because the microscope has a small viewing size.

The mark [6] stands for this setting: division feature only, triplicate.
Where [7] appears, read: E. coli spiked in urine, triplicate.

With `CC1(C)S[C@@H]2[C@H](NC(=O)[C@H](N)c3ccccc3)C(=O)N2[C@H]1C(=O)O` [Ampicillin, ampicillin], the MIC in the experiment with E. coli [1] (setting [6]), in the experiment on E. coli [2] and against E. coli [3] (setting [7]) was 2 µg/mL (≈ 5.72 µM) in each case.

Consider `C[C@H]1[C@H](NC(=O)/C(=N\OC(C)(C)C(=O)O)c2csc(N)n2)C(=O)N1S(=O)(=O)O` [Aztreonam, aztreonam], for which the MIC against E. coli [1] (setting [6]), against E. coli [2] and in the experiment with E. coli [3] (setting [7]) was 0.12 µg/mL (≈ 0.276 µM) in each case. In the experiment with E. coli [4] (aztreonam 0.5 μg/mL), the “effect on bacterial morphology” value is reported as “caused the bacterial cells to elongate”.

In the experiment with E. coli [1] (setting [6]), `O=C(O)c1cn(C2CC2)c2cc(N3CCNCC3)c(F)cc2c1=O` [Ciprofloxacin, ciprofloxacin] showed an MIC of 0.015 to 0.03 µg/mL (≈ 0.0453 to 0.0905 µM).

With `[H]/N=C(/N)N[C@H]1[C@H](O)[C@@H](O)[C@H](O[C@@H]2O[C@@H](C)[C@](O)(C=O)[C@H]2O[C@@H]2O[C@@H](CO)[C@H](O)[C@@H](O)[C@@H]2NC)[C@@H](N/C(N)=N\[H])[C@@H]1O` [Streptomycin, streptomycin], the MIC with E. coli [1] (setting [6]), with E. coli [2] and against E. coli [3] (setting [7]) was 4 µg/mL (≈ 6.88 µM) in each case.

In the case of polymyxin B, in the experiment on E. coli [1] (at 180 minutes, cell counting), the “MIC from Ntotal vs. antibiotic concentration” value was ~2 µg/mL. Also, in the experiment on E. coli [1] (setting [6]), the “MIC, AST Without DL” value is 1 to 2 µg/mL. Moreover, the “MIC, BMD” value in the experiment with E. coli [2] is 2 µg/mL. Further, the “MIC, DLVM-AST” value against E. coli [3] (setting [7]) stood at 2 µg/mL. In the experiment with E. coli [3] (obtained 30 minutes after antibiotic treatment), the “MIC (concentration at which 90% of the bacterial cells are inhibited)” value was determined as 2 µg/mL. The compound also registered an MIC in experiment [5] of 2 µg/mL. In the experiment with E. coli [4] (PMB 8 μg/mL), the “effect on bacterial motion” value is given as “decreased bacterial motion”.
